# Measured values as given in patent US6706663B2, “Herbicidal 3-heterocyclic substituted benzisothiazole and benzisoxazole compounds” (Wyeth, priority 2000, dated 2004).
# Tests used:
# [1] = test system: ABUTH (Abutilon theophrasti); assay: Postemergence herbicidal evaluation; assay type: in vivo, Medic.; settings: postemergence
# Method in brief: (§1)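 Seedlings grown about two weeks in flats, sprayed, then kept under standard greenhouse care. Rated visually 4–5 weeks after treatment on a 0–9 scale (stand, vigour, malformation, size, chlorosis, overall appearance) relative to untreated control; repeat tests averaged.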
# [2] = test system: AMBEL (Ambrosia artemisifolia); assay: Postemergence herbicidal evaluation; assay type: in vivo, L.; settings: postemergence
# Method in brief: as §1
# [3] = test system: CASOB (Cassia obtusifolia); assay: Postemergence herbicidal evaluation; assay type: in vivo, L.; settings: postemergence
# Method in brief: as §1
# [4] = test system: CHEAL (Chenopodium album); assay: Postemergence herbicidal evaluation; assay type: in vivo, L.; settings: postemergence
# Method in brief: as §1
# GALAP (Galium aparine) [5] = assay: Postemergence herbicidal evaluation; assay type: in vivo; settings: postemergence
# Method in brief: as §1
# [6] = test system: IPOHE (Ipomoea hederacea); assay: Postemergence herbicidal evaluation; assay type: in vivo, (L.) Jacq.; settings: postemergence
# Method in brief: as §1
# [7] = test system: ECHCG (Echinochloa crus-galli); assay: Postemergence herbicidal evaluation; assay type: in vivo, (L.) Beau; settings: postemergence
# Method in brief: as §1
# [8] = test system: GLXMAW (Soybean, Williams); assay: Postemergence herbicidal evaluation; assay type: in vivo, Glycine max, (L.) Merr. cv Williams; settings: postemergence
# Method in brief: as §1
# ORYSAT (Rice, Tebonnet) [9] = assay: Postemergence herbicidal evaluation; assay type: in vivo, Oryza sativa, (L.) Tebonnet; settings: postemergence
# Method in brief: as §1
# [10] = test system: TRZAWR (Wheat, Winter, cv Riband); assay: Postemergence herbicidal evaluation; assay type: in vivo, Triticum aestivum; settings: postemergence
# Method in brief: as §1
# ZEAMX (Corn, Field) [11] = assay: Postemergence herbicidal evaluation; assay type: in vivo, Zea mays, L.; settings: postemergence
# Method in brief: as §1
# [12] = test system: ABUTH (Abutilon theophrasti); assay: Preemergence herbicidal evaluation; assay type: in vivo, Medic.; settings: preemergence, rated 4-5 weeks after treatment
# [13] = test system: AMBEL (Ambrosia artemisifolia); assay: Preemergence herbicidal evaluation; assay type: in vivo, L.; settings: preemergence, rated 4-5 weeks after treatment
# Method in brief: (§2)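 Seeds planted in potting soil cups and sprayed preemergence with aqueous acetone compound solution. Greenhouse-grown; rated 4–5 weeks after treatment on a 0-9 visual scale (stand, vigor, malformation, size, chlorosis, appearance) versus control.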
# GALAP (Galium aparine) [14] = assay: Preemergence herbicidal evaluation; assay type: in vivo; settings: preemergence, rated 4-5 weeks after treatment
# Method in brief: as §2
# [15] = test system: IPOHE (Ipomoea hederacea); assay: Preemergence herbicidal evaluation; assay type: in vivo, (L.) Jacq.; settings: preemergence, rated 4-5 weeks after treatment
# [16] = test system: ECHCG (Echinochloa crus-galli); assay: Preemergence herbicidal evaluation; assay type: in vivo, (L.) Beau; settings: preemergence, rated 4-5 weeks after treatment
# Method in brief: as §2
# GLXMA (Soybean) = assay: Preemergence herbicidal evaluation; assay type: in vivo, Glycine max, (L.) Merr.; settings: preemergence, rated 4-5 weeks after treatment
# ZEAMX (Corn, Field) [17] = assay: Preemergence herbicidal evaluation; assay type: in vivo, Zea mays, L.; settings: preemergence, rated 4-5 weeks after treatment
# [18] = test system: ECHORC (Echinochloa oryzoides); assay: Flooded paddy, preemergence weed control; assay type: in vivo, Echinochloa oryzoides (Ard.) Fritsch.; settings: rated 3-4 weeks after treatment, 0-9 rating scale
# Method in brief: (§3)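 Greenhouse paddy test, preemergence. Seeds planted in the top 0.5 cm of silt loam soil, which remained flooded at 1.5–3 cm depth. Scored 0-9 by visual comparison with control.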
# CYPIR (Cyperus iria) = assay: Flooded paddy, preemergence weed control; assay type: in vivo; settings: rated 3-4 weeks after treatment, 0-9 rating scale
# Method in brief: as §3
# [19] = test system: MOOVA (Monochoria vaginalis); assay: Flooded paddy, preemergence weed control; assay type: in vivo, Presl.; settings: rated 3-4 weeks after treatment, 0-9 rating scale
# Method in brief: as §3
# [20] = test system: SAGPY (Sagittaria pygmaea); assay: Flooded paddy, preemergence weed control; assay type: in vivo, L.; settings: rated 3-4 weeks after treatment, 0-9 rating scale
# Method in brief: as §3
# ORYSAT (Rice, Tebonnet) [21] = assay: Flooded paddy, post-transplant rice tolerance; assay type: in vivo, Oryza sativa, (L.) Tebonnet; settings: in vivo
# Method in brief: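 Ten-day-old seedlings, 2/pot, silt loam; flood kept 1.5–3 cm over soil; herbicide applied post-transplant; greenhouse; score 0–9 visual vs control.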
substance,measurement,setting,value
"1-methyl-3-[3-(4-oxo-delta-2-1,2,5-thiadiazolin-3-yl)-1,2-benzisothiazol-5-yl]-6-(trifluoromethyl)uracil S′,S′-dioxide [Compound 92]",ABUTH herbicidal rating,[1]; rate 0.0320 kg/ha,6.0
same,ABUTH herbicidal rating,[1]; rate 0.0620 kg/ha,7.0
same,ABUTH herbicidal rating,[1]; rate 0.1250 kg/ha,9.0
same,AMBEL herbicidal rating,[2]; rate 0.0320 kg/ha,3.0
same,AMBEL herbicidal rating,[2]; rate 0.0620 kg/ha,5.0
same,AMBEL herbicidal rating,[2]; rate 0.1250 kg/ha,6.0
same,CASOB herbicidal rating,[3]; rate 0.0320 kg/ha,4.0
same,CASOB herbicidal rating,[3]; rate 0.0620 kg/ha,5.0
same,CASOB herbicidal rating,[3]; rate 0.1250 kg/ha,5.0
same,CHEAL herbicidal rating,[4]; rate 0.0320 kg/ha,3.0
same,CHEAL herbicidal rating,[4]; rate 0.0620 kg/ha,6.0
same,CHEAL herbicidal rating,[4]; rate 0.1250 kg/ha,6.0
same,GALAP herbicidal rating,GALAP (Galium aparine) [5]; rate 0.0320 kg/ha,2.0
same,GALAP herbicidal rating,GALAP (Galium aparine) [5]; rate 0.0620 kg/ha,3.0
same,GALAP herbicidal rating,GALAP (Galium aparine) [5]; rate 0.1250 kg/ha,4.0
same,IPOHE herbicidal rating,[6]; rate 0.0320 kg/ha,6.0
same,IPOHE herbicidal rating,[6]; rate 0.0620 kg/ha,8.0
same,IPOHE herbicidal rating,[6]; rate 0.1250 kg/ha,8.0
same,ECHCG herbicidal rating,[7]; rate 0.0320 kg/ha,2.0
same,ECHCG herbicidal rating,[7]; rate 0.0620 kg/ha,3.0
same,ECHCG herbicidal rating,[7]; rate 0.1250 kg/ha,4.0
same,GLXMAW herbicidal rating,[8]; rate 0.0320 kg/ha,5.0
same,GLXMAW herbicidal rating,[8]; rate 0.0620 kg/ha,5.0
same,GLXMAW herbicidal rating,[8]; rate 0.1250 kg/ha,5.5
same,ORYSAT herbicidal rating,"ORYSAT (Rice, Tebonnet) [9]; rate 0.0320 kg/ha",1.0
same,ORYSAT herbicidal rating,"ORYSAT (Rice, Tebonnet) [9]; rate 0.0620 kg/ha",1.0
same,ORYSAT herbicidal rating,"ORYSAT (Rice, Tebonnet) [9]; rate 0.1250 kg/ha",1.0
same,TRZAWR herbicidal rating,[10]; rate 0.0320 kg/ha,1.0
same,TRZAWR herbicidal rating,[10]; rate 0.0620 kg/ha,1.5
same,TRZAWR herbicidal rating,[10]; rate 0.1250 kg/ha,1.5
same,ZEAMX herbicidal rating,"ZEAMX (Corn, Field) [11]; rate 0.0320 kg/ha",2.0
same,ZEAMX herbicidal rating,"ZEAMX (Corn, Field) [11]; rate 0.0620 kg/ha",2.5
same,ZEAMX herbicidal rating,"ZEAMX (Corn, Field) [11]; rate 0.1250 kg/ha",3.0
same,Preemergence herbicidal rating ABUTH,[12]; rate 0.0620 kg/ha,0.0
same,Preemergence herbicidal rating ABUTH,[12]; rate 0.1250 kg/ha,0.0
same,Preemergence herbicidal rating ABUTH,[12]; rate 0.2500 kg/ha,3.0
same,Preemergence herbicidal rating AMBEL,[13]; rate 0.0620 kg/ha,0.0
same,Preemergence herbicidal rating AMBEL,[13]; rate 0.1250 kg/ha,0.0
same,Preemergence herbicidal rating AMBEL,[13]; rate 0.2500 kg/ha,0.0
same,Preemergence herbicidal rating GALAP,GALAP (Galium aparine) [14]; rate 0.0620 kg/ha,0.0
same,Preemergence herbicidal rating GALAP,GALAP (Galium aparine) [14]; rate 0.1250 kg/ha,0.0
same,Preemergence herbicidal rating GALAP,GALAP (Galium aparine) [14]; rate 0.2500 kg/ha,2.0
same,Preemergence herbicidal rating IPOHE,[15]; rate 0.0620 kg/ha,0.0
same,Preemergence herbicidal rating IPOHE,[15]; rate 0.1250 kg/ha,0.0
same,Preemergence herbicidal rating IPOHE,[15]; rate 0.2500 kg/ha,4.0
same,Preemergence herbicidal rating ECHCG,[16]; rate 0.0620 kg/ha,0.0
same,Preemergence herbicidal rating ECHCG,[16]; rate 0.1250 kg/ha,0.0
same,Preemergence herbicidal rating ECHCG,[16]; rate 0.2500 kg/ha,0.0
same,Preemergence herbicidal rating GLXMA,GLXMA (Soybean); rate 0.0620 kg/ha,0.0
same,Preemergence herbicidal rating GLXMA,GLXMA (Soybean); rate 0.1250 kg/ha,0.0
same,Preemergence herbicidal rating GLXMA,GLXMA (Soybean); rate 0.2500 kg/ha,0.0
same,Preemergence herbicidal rating ZEAMX,"ZEAMX (Corn, Field) [17]; rate 0.0620 kg/ha",0.0
same,Preemergence herbicidal rating ZEAMX,"ZEAMX (Corn, Field) [17]; rate 0.1250 kg/ha",0.0
same,Preemergence herbicidal rating ZEAMX,"ZEAMX (Corn, Field) [17]; rate 0.2500 kg/ha",0.0
same,ECHORC herbicidal rating,[18]; rate 0.0320 kg/ha,0.0
same,ECHORC herbicidal rating,[18]; rate 0.1250 kg/ha,0.0
same,CYPIR herbicidal rating,CYPIR (Cyperus iria); rate 0.0320 kg/ha,0.0
same,CYPIR herbicidal rating,CYPIR (Cyperus iria); rate 0.1250 kg/ha,8.0
same,MOOVA herbicidal rating,[19]; rate 0.0320 kg/ha,0.0
same,MOOVA herbicidal rating,[19]; rate 0.1250 kg/ha,8.0
same,SAGPY herbicidal rating,[20]; rate 0.0320 kg/ha,0.0
same,SAGPY herbicidal rating,[20]; rate 0.1250 kg/ha,0.0
same,ORYSAT herbicidal rating (transplanted rice tolerance),"ORYSAT (Rice, Tebonnet) [21]",0.0
